From patent US9375459B2, “Cyclic peptides with an anti-neoplasic and anti-angiogenic activity” (priority 2011, dated 2016)
Where a SMILES comes first, the peptide text is derived from it. Where no end group is shown, it is not given here.

The molecules below were run on human tumor cells (assay: Cytotoxic activity screening of peptide library on human tumor cell lines, SRB method). Details: SRB method; cytotoxic = dose-dependent 50% inhibition of proliferation, GI50 below 100 μM in at least one cell line.
Type: cell-based
Method: Negative control cells were cultured on a volume of vehicle equal to that of the experimental samples. An “x-y” curve (dose-response) was established with the percent of surviving cells, compared in respect to the negative control cells, and the following parameters were estimated: 50% growth inhibition (GI50); Total growth inhibition (TGI); and the lethal concentration 50 (LC50), that is the concentration causing the 50% of cell death (Boyd M R, Paull K D, and Rubinstein L R (1992) “Data display and analysis strategies for the NCI Disease Oriented In-Vitro Antitumor Drug Screen, in Cytotoxic Anticancer Drugs: Models and Concept for Drug Discovery and Development” (Baleriote F A, Corbett T H and Baker L H eds) pp 11-34, Kluwer Academia Publishers, Boston).
Were considered as cytotoxic peptides all those peptides being able of inhibiting 50% of the cellular proliferation, in a dose-dependent manner, and showing GI50 values below 100 μM, at least in one of the cell lines studied. The human tumor cell lines used were: HEp-2 (larynx carcinoma), A549 (lung epithelial adenocarcinoma), M14 (melanoma), Colo 205 (colon adenocarcinoma), Ls174T (colon adenocarcinoma), LnCAP (prostate carcinoma), PC-3 (prostate carcinoma) and H 125 (non-small cell lung adenocarcinoma). Represented are primary sequences for the designed peptides, the code used for its generation and their respective cytotoxic capacity on human tumor cells.

Molecule | Cytotoxic activity in vitro
CC[C@H](C)[C@H](NC(=O)[C@H](Cc1ccccc1)NC(=O)[C@H](CC(=O)O)NC(=O)[C@H](CO)NC(=O)[C@H](CO)NC(=O)[C@H](CC(N)=O)NC(=O)[C@H](C)NC(=O)[C@H](CCC(=O)O)NC(=O)[C@H](CCCCN)NC(=O)[C@H](CC(N)=O)NC(=O)[C@H](Cc1ccccc1)NC(=O)[C@H](Cc1ccccc1)NC(=O)[C@@H](N)CO)C(=O)N[C@@H](Cc1c[nH]cn1)C(=O)N[C@@H](Cc1ccccc1)C(=O)N[C@H](C(=O)N[C@@H](CC(=O)O)C(=O)N[C@@H](Cc1c[nH]cn1)C(=O)N[C@@H](Cc1ccccc1)C(=O)N[C@@H](CO)C(N)=O)C(C)C [Peptide O07P106] (H-SFFNKEANSSDFIHFVDHFS-NH2) | − (symbol − indicates its absence, following criteria established in Example 2)
CC[C@H](C)[C@H](NC(=O)[C@H](Cc1ccccc1)NC(=O)[C@H](CC(=O)O)NC(=O)[C@@H](NC(=O)[C@H](C)NC(=O)[C@@H](NC(=O)[C@H](CC(=O)O)NC(=O)[C@@H](NC(=O)[C@H](CCC(N)=O)NC(=O)CNC(=O)[C@@H](NC(=O)[C@@H](NC(=O)[C@H](CCCCN)NC(=O)[C@@H](NC(=O)[C@H](CC(C)C)NC(=O)[C@@H](N)Cc1ccccc1)C(C)C)[C@@H](C)CC)C(C)C)C(C)C)C(C)C)[C@@H](C)O)C(=O)N[C@H](C(N)=O)C(C)C [Peptide E07P03, FLVKIVGQVDVATDFIV- amide] (H-FLVKIVGQVDVATDFIV-NH2) | − (symbol − indicates its absence, following criteria established in Example 2)
CC[C@H](C)[C@H](NC(=O)[C@H](C)NC(=O)[C@H](C)NC(=O)[C@@H](NC(=O)[C@H](CC(=O)O)NC(=O)[C@H](CC(=O)O)NC(=O)[C@H](CC(C)C)NC(=O)[C@H](CC(C)C)NC(=O)[C@@H]1CCCN1C(=O)[C@H](C)NC(=O)[C@H](C)NC(=O)[C@H](C)NC(=O)[C@H](Cc1ccc(O)cc1)NC(=O)[C@H](Cc1c[nH]cn1)NC(=O)CNC(=O)CNC(=O)[C@H](CC(N)=O)NC(=O)[C@@H](N)CC(=O)O)[C@@H](C)CC)C(=O)N[C@@H](CCC(N)=O)C(=O)N[C@@H](Cc1c[nH]cn1)C(N)=O [Peptide E07P01] (H-DNGGHYAAAPLLDDIAAIQH-NH2) | − (symbol − indicates its absence, following criteria established in Example 2)
CC[C@H](C)[C@H](NC(=O)[C@H](CC(N)=O)NC(=O)[C@@H](N)C(C)C)C(=O)NCC(=O)NCC(=O)N[C@@H](Cc1c[nH]cn1)C(=O)N[C@@H](CCC(N)=O)C(=O)N[C@@H](C)C(=O)N1CCC[C@H]1C(=O)N[C@@H](CC(=O)O)C(=O)N[C@@H](Cc1ccccc1)C(=O)N[C@@H](CC(C)C)C(=O)N[C@H](C(=O)N[C@@H](CCCCN)C(=O)N[C@H](C(=O)N[C@H](C(=O)NCC(=O)N[C@@H](CCC(N)=O)C(=O)N[C@H](C(=O)N[C@@H](CC(=O)O)C(N)=O)C(C)C)C(C)C)[C@@H](C)CC)C(C)C [Peptide E07P02] (H-VNIGGHQAPDFLVKIVGQVD-NH2) | − (symbol − indicates its absence, following criteria established in Example 2)
CC(C)C[C@H](NC(=O)[C@H](CCC(=O)O)NC(=O)[C@H](CC(=O)O)NC(=O)[C@H](C)NC(=O)CNC(=O)CNC(=O)CNC(=O)CNC(=O)[C@H](Cc1ccccc1)NC(=O)[C@H](CC(C)C)NC(=O)[C@@H](NC(=O)[C@H](CC(=O)O)NC(=O)[C@@H](N)CC(N)=O)C(C)C)C(=O)N[C@@H](Cc1c[nH]c2ccccc12)C(=O)NCC(=O)NCC(=O)N[C@@H](C)C(=O)NCC(=O)N[C@@H](CCCCN)C(=O)N[C@@H](CC(=O)O)C(N)=O [Peptide A07P46] (H-NDVLFGGGGADELWGGAGKD-NH2) | − (symbol − indicates its absence, following criteria established in Example 2)
CC[C@H](C)[C@H](NC(=O)[C@H](CC(=O)O)NC(=O)[C@H](CCCCN)NC(=O)CNC(=O)[C@H](C)NC(=O)CNC(=O)CNC(=O)[C@H](Cc1c[nH]c2ccccc12)NC(=O)[C@H](CC(C)C)NC(=O)[C@H](CCC(=O)O)NC(=O)[C@@H](N)CC(=O)O)C(=O)N[C@@H](Cc1ccccc1)C(=O)N[C@H](C(=O)N[C@@H](Cc1ccccc1)C(=O)N[C@@H](CO)C(=O)N[C@@H](C)C(=O)N[C@@H](C)C(=O)N[C@@H](CO)C(=O)N[C@@H](CC(=O)O)C(=O)N[C@@H](CO)C(N)=O)C(C)C [Peptide O07P102] (H-DELWGGAGKDIFVFSAASDS-NH2) | − (symbol − indicates its absence, following criteria established in Example 2)
CC[C@H](C)[C@H](NC(=O)[C@H](Cc1ccccc1)NC(=O)[C@@H](N)CC(=O)O)C(=O)N[C@@H](Cc1c[nH]cn1)C(=O)N[C@@H](Cc1ccccc1)C(=O)N[C@H](C(=O)N[C@@H](CC(=O)O)C(=O)N[C@@H](Cc1c[nH]cn1)C(=O)N[C@@H](Cc1ccccc1)C(=O)N[C@@H](CO)C(=O)NCC(=O)N[C@H](C(=O)N[C@@H](C)C(=O)NCC(=O)N[C@@H](CCC(=O)O)C(=O)N[C@@H](C)C(=O)N[C@@H](CC(C)C)C(=O)N[C@@H](CC(C)C)C(=O)N[C@@H](CO)C(=O)N[C@@H](Cc1ccc(O)cc1)C(N)=O)[C@@H](C)O)C(C)C [Peptide O07P107] (H-DFIHFVDHFSGTAGEALLSY-NH2) | − (symbol − indicates its absence, following criteria established in Example 2)
CC[C@H](C)[C@H](NC(=O)CNC(=O)[C@H](CCCCN)NC(=O)[C@H](CCC(N)=O)NC(=O)[C@@H](N)Cc1ccccc1)C(=O)N[C@@H](CC(=O)O)C(=O)N[C@@H](CCCCN)C(=O)N[C@H](C(=O)N[C@@H](CC(=O)O)C(=O)N[C@@H](CC(C)C)C(=O)N[C@@H](CO)C(=O)N[C@@H](Cc1ccccc1)C(=O)N[C@@H](Cc1ccccc1)C(=O)N[C@@H](CC(N)=O)C(=O)N[C@@H](CCCCN)C(=O)N[C@@H](CCC(=O)O)C(=O)N[C@@H](C)C(=O)N[C@@H](CC(N)=O)C(=O)N[C@@H](CO)C(=O)N[C@@H](CO)C(N)=O)[C@@H](C)CC [Peptide O07P105] (H-FQKGIDKIDLSFFNKEANSS-NH2) | − (symbol − indicates its absence, following criteria established in Example 2)
CC[C@H](C)[C@H](NC(=O)[C@H](Cc1ccccc1)NC(=O)[C@H](CC(=O)O)NC(=O)[C@@H](NC(=O)[C@H](C)NC(=O)[C@@H](NC(=O)[C@@H](N)CC(=O)O)C(C)C)[C@@H](C)O)C(=O)N[C@H](C(N)=O)C(C)C [Peptide U07P78, DVATDFIV- amide] (H-DVATDFIV-NH2) | − (symbol − indicates its absence, following criteria established in Example 2)
NSQKVIFAAWDAGGNDTFDF- amide (NSQKVIFAAWDAGGNDTFDF-NH2) [Peptide M07P38] | − (symbol − indicates its absence, following criteria established in Example 2)
CC[C@H](C)[C@H](NC(=O)[C@H](CCCNC(=N)N)NC(=O)[C@H](CCC(N)=O)NC(=O)[C@H](CC(N)=O)NC(=O)[C@H](C)NC(=O)[C@@H](NC(=O)[C@H](Cc1ccc(O)cc1)NC(=O)CNC(=O)[C@H](CO)NC(=O)[C@H](Cc1ccccc1)NC(=O)[C@H](CC(=O)O)NC(=O)[C@H](Cc1ccccc1)NC(=O)[C@@H](NC(=O)[C@H](CC(=O)O)NC(=O)[C@H](CC(N)=O)NC(=O)CNC(=O)CNC(=O)[C@H](C)NC(=O)[C@@H](N)CC(=O)O)[C@@H](C)O)[C@@H](C)O)C(=O)N[C@@H](CC(N)=O)C(N)=O [Peptide M07P39] (H-DAGGNDTFDFSGYTANQRIN-NH2) | − (symbol − indicates its absence, following criteria established in Example 2)
